US7605168B2 (Plexxikon, Inc., priority 2004, dated 2009)

Tests used:
[1] = target: T1, PDE4B2: full-length human PDE4B2 isozyme (Homo sapiens, UniProt Q07343); assay: PDE4 IC50 determination by Scintillation Proximity Assay (SPA), full-length PDE4B2; type: biochemical; conditions: cell lysate, [3H]cAMP SPA
T1 construct: made in house; host or cells: baculovirus infected insect cells (pFastBacHT)
Summary of the method: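 Unpurified enzyme from cell lysates (PDE4B2 2.5 μl, PDE4D5 0.083 μl of 50% glycerol stock/ml) hydrolysing [3H]cAMP in 50 mM Tris pH 7.5, 8.3 mM MgCl, 1.7 mM EGTA, 0.01% BSA, 30 min at 30 °C. Stopped with yttrium silicate SPA beads in 18 mM ZnSO4; bead-bound [3H]AMP counted. IC50 by non-linear regression.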

[2] = target: T2, PDE4D: catalytic domain S316-V692 (Homo sapiens, UniProt Q08499); assay: PDE4 IC50 determination by Scintillation Proximity Assay (SPA), PDE4D catalytic domain; type: biochemical; conditions: [3H]cAMP SPA, 30 min at 30° C.
T2 construct: pET15S PDE4D S316-V692-X; His6 (N, cleaved yes); thrombin cleavage site (N, cleaved yes); made in house; host or cells: E. coli BL21 (DE3) RIL
Method: IC50s were determined by Scintillation Proximity Assay (SPA). The principle of the assay is based on the fact that cAMP, the PDE4 substrate, binds weakly to Yittrium Silicate SPA beads, whereas AMP, the product of PDE4 hydrolysis binds strongly. Thus, the extent of PDE4 hydrolysis of a sample of [^3H]cAMP can be measured because only the [^3H]AMP produced by PDE4 hydrolysis will bind to the SPA beads and produce a scintillation signal.
[…] Enzyme was stored in 50% glycerol at −20°. See Example 144.
Compounds tested (see Tables 5 for compounds and results) were 3-fold serially diluted 11 times in DMSO from a starting concentration of 4 mM or 40 μM, depending on compound potency. 1 μl of each dilution was transferred into duplicate wells of a white polystyrene 384-well assay plate (Corning #3710). In addition to the compound dilutions, each assay plate contained control wells with 1 μl of DMSO (to define 0% enzyme inhibition) or 1 μl of 200 μM roflumilast (to define 100% enzyme inhibition). Using a Beckman FX robot, 10 μl of [^3H] cAMP (Amersham TRK559) at […] in assay buffer (50 mM Tris, pH 7.5; 8.3 mM MgCl; 1.7 mM EGTA; 0.01% BSA) was transferred to each assay well. Next, 10 μl of PDE4 enzyme in assay buffer was added and the plates were shaken for 30 s. at 1000 rpm to start the cAMP hydrolysis reaction. The concentrations of enzyme used were: PDE4B, 80 ng/ml; PDE4D, 4 ng/ml; PDE4B2, 2.5 μl of 50% glycerol stock/ml; PDE4D5 0.083 μl of 50% glycerol stock/ml. Assay plates were covered and incubated for 30 min. at 30° C. Reactions were stopped by robotic addition of 10 μl of 5 mg/ml SPA beads (Amersham RPNQ0013) in 18 mM ZnSO4. The assay plates were covered with clear plastic film, centrifuged for 1 min. at 1000 RPM to settle the SPA beads, and counted using a Wallac TriLux scintillation counter. IC50's were calculated from the raw assay data by non-linear regression curve fitting using the Assay Explorer software package from MDL.

[3] = test system: TNFα levels in serum of LPS-challenged rats; assay: Rat inhibition studies: serum TNFα after iv LPS challenge; type: in vivo; conditions: 5 mg/kg po, LPS 0.1 mg/kg iv 2 h after dosing, percent decrease in serum TNFα versus vehicle, read-out: % inhibition r TNFα
Method: All studies were done with male rats CD (SD) IGS BR (Crl) (Charles River, France), which were grouped in to 5 animal groups.
At the end of the acclimatization period, the non-fasted rats were weighed, individually identified on the tail with a permanent marker and administered by oral (po) or interperitoneal (ip) route with either vehicle, reference or test compound in a volume of 10 mL/kg adapted to the body weight. The animals were gathered in groups of 5 animals in a polystyrene labeled cage with sawdust covered floors. 2-hours after vehicle, reference or test substance administration, rats received an intravenous (iv) injection of 0.1 mg/kg LPS in a volume of 1 mL/kg of body weight. 2 h after LPS challenge (or as indicated in Tables 3B and 4B), blood samples were collected into tubes without anticoagulant by retro-orbital puncture under gas (isoflurane) anesthesia. Samples were allowed to clot at room temperature for 5 to 10 min then put on ice until there were prepared by centrifugation (6000×g for 3 min at 4° C.) and stored at −20° C. until use. TNFα levels were measured in serum samples in duplicate by ELISA technique according to the manufacturer's procedure (Rat TNFα kit Quantikine M (RTA00, R&D System, France)). Data are reported as percent decrease in observed TNFα levels versus TNFα levels observed for vehicle dosed animal groups.

T1 sequence (Q07343 with tags, fused parts or gaps isoform Q07343-2): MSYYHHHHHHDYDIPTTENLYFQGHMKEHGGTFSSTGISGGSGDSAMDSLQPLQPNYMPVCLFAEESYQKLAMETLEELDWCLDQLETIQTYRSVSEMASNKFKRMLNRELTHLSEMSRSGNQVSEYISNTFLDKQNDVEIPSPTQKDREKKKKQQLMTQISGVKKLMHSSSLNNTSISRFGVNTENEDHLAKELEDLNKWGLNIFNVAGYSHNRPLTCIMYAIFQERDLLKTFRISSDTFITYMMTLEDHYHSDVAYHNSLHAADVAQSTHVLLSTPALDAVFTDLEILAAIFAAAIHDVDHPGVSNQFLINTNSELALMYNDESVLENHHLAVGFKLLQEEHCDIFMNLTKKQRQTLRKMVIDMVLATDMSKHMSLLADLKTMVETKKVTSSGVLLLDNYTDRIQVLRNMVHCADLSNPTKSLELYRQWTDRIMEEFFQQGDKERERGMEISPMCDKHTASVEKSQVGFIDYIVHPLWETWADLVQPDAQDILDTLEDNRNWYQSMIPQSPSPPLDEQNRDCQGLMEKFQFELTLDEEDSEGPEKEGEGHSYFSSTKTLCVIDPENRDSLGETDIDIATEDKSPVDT
T2 sequence (Q08499 380-756): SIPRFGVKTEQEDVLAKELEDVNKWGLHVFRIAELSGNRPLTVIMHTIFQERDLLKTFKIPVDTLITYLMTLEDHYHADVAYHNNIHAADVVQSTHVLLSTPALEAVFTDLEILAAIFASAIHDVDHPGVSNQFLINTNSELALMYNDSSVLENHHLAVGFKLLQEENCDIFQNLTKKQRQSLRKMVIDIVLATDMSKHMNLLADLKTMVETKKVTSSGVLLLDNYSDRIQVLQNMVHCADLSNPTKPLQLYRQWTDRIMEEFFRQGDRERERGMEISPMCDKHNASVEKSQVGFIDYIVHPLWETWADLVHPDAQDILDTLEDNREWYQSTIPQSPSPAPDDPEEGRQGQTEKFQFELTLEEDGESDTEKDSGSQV

**Q.** For `CCOc1ccc2ccccc2c1C(=O)n1cc(-c2ccc(OC)c(OC)c2)c2cccnc21` [Compound 52, [3-(3,4-Dimethoxy-phenyl)-pyrrolo[2,3-b]pyridin-1-yl]-(2-ethoxy-naphthalen-1-yl)-methanone], which IC50 [1] is on record?
**A.** < 10 µM

**Q.** And the IC50 [2]?
**A.** ≤ 10 µM

**Q.** And the inhibition in vivo at 5 mg/kg [3]?
**A.** ≥ 20%

**Q.** Which results are given for `CCOc1ccccc1C(=O)n1cc(-c2ccc(OC)c(OC)c2)c2cccnc21` [Compound 61, [3-(3,4-Dimethoxy-phenyl)-pyrrolo[2,3-b]pyridin-1-yl]-(2-ethoxy-phenyl)-methanone-amide]?
**A.** IC50 [1]: < 10 µM; IC50 [2]: ≤ 10 µM; inhibition in vivo at 5 mg/kg [3]: ≥ 20%
